Assay results taken from patent US4594338A, “Thioether derivatives of tylosin” (priority 1984, dated 1986).
≈ marks a conversion by molar mass, not a printed value.

Tests used:
Format in all cases: cell-based
[1] = test system: Micrococcus luteus ATCC 9341; assay: Minimum inhibitory concentration, Micrococcus luteus ATCC 9341; conditions: ATCC9341
Source text: (§1) The compounds of formula (I) show antibacterial activity against both gram-positive and gram-negative bacteria. The following Tables illustrate minimum inhibitory concentrations (MIC's) for a representative sample of the compounds of the invention against gram-positive and gram-negative bacteria as well as bacteria resistant to antibiotics. In the Tables abbreviations with the symbol r attached designate resistant bacterial strains.

[2] = test system: Staphylococcus aureus KB 199(EM^r); assay: Minimum inhibitory concentration, Staphylococcus aureus KB 199(EM^r); conditions: Staphylococcus aureus KB 199, erythromycin-resistant (EM^r)
Source text: as §1

[3] = test system: Bacillus cereus IFO 3001; assay: Minimum inhibitory concentration, Bacillus cereus IFO 3001; conditions: IFO3001
Source text: as §1

[4] = test system: Klebsiella pneumoniae ATCC 10031; assay: Minimum inhibitory concentration, Klebsiella pneumoniae ATCC 10031; conditions: ATCC10031
Source text: as §1

[5] = test system: Staphylococcus aureus KB 224 (MC, TC, KM, SM^r); assay: Minimum inhibitory concentration against resistant strain Staphylococcus aureus KB 224
Source text: as §1

[6] = test system: Escherichia coli NIHJ; assay: Minimum inhibitory concentration, Escherichia coli NIHJ
Source text: as §1

[7] = test system: Staphylococcus aureus KB 221 (MC, TC, CP, KM^r); assay: Minimum inhibitory concentration against resistant strain Staphylococcus aureus KB 221
Source text: as §1

[8] = test system: Mycobacterium smegmatis ATCC 607; assay: Minimum inhibitory concentration, Mycobacterium smegmatis ATCC 607; conditions: Mycolicibacterium smegmatis, ATCC607
Source text: as §1

[9] = test system: Bacillus subtilis PCI 219; assay: Minimum inhibitory concentration, Bacillus subtilis PCI 219; conditions: PCI219
Source text: as §1

[10] = test system: Klebsiella pneumoniae PCI 602; assay: Minimum inhibitory concentration, Klebsiella pneumoniae PCI 602; conditions: PCI602
Source text: as §1

[11] = test system: Staphylococcus aureus KB 191 (MC, TC^r); assay: Minimum inhibitory concentration against resistant strain Staphylococcus aureus KB 191
Source text: as §1

[12] = test system: Staphylococcus aureus ATCC 6538P; assay: Minimum inhibitory concentration, Staphylococcus aureus ATCC 6538P; conditions: ATCC6538P
Source text: as §1

[13] = test system: Staphylococcus aureus KB 219 (MC, TC, PC, CP^r); assay: Minimum inhibitory concentration against resistant strain Staphylococcus aureus KB 219
Source text: as §1

[14] = test system: Salmonella typhirium KB 20; assay: Minimum inhibitory concentration, Salmonella typhirium KB 20; conditions: KB20, read-out: minimum inhibitory concentration (MIC)
Source text: as §1

[15] = test system: Proteus vulgaris IFO 3167; assay: Minimum inhibitory concentration, Proteus vulgaris IFO 3167; conditions: IFO3167
Source text: as §1

[16] = test system: Pseudomonas aeruginosa P-3; assay: Minimum inhibitory concentration, Pseudomonas aeruginosa P-3; conditions: P3
Source text: as §1

SMILES | MIC [1] | MIC [2] | MIC [3] | MIC [4] | MIC [5] | MIC [6] | MIC [7] | MIC [8] | MIC [9] | MIC [10] | MIC [11] | MIC [12] | MIC [13] | MIC [14] | MIC [15] | MIC [16]
CCC1OC(=O)CC(O)C(C)C(OC2OC(C)C(OC3CC(C)(O)C(O)C(C)O3)C(N(C)C)C2O)C(CC=O)CC(C)C(=O)CC(Sc2ccccc2)C(C)=CC1COC1OC(C)C(O)C(OC)C1OC (stereo not shown) [Compound S, 10,11-Dihydro-11-(phenylthio)tylosin] | < 0.1 µg/mL | 50 µg/mL (≈ 48.7 µM) | 0.4 µg/mL (≈ 0.39 µM) | 100 µg/mL (≈ 97.4 µM) | 50 µg/mL (≈ 48.7 µM) | 100 µg/mL (≈ 97.4 µM) | 50 µg/mL (≈ 48.7 µM) | 50 µg/mL (≈ 48.7 µM) | 0.4 µg/mL (≈ 0.39 µM) | 100 µg/mL (≈ 97.4 µM) | 50 µg/mL (≈ 48.7 µM) | 1.56 µg/mL (≈ 1.52 µM) | 100 µg/mL (≈ 97.4 µM) | 100 µg/mL (≈ 97.4 µM) | 100 µg/mL (≈ 97.4 µM) | > 100 µg/mL
CCC1OC(=O)CC(O)C(C)C(OC2OC(C)C(OC3CC(C)(O)C(O)C(C)O3)C(N(C)C)C2O)C(CC=O)CC(C)C(=O)CC(Sc2ccc(Cl)cc2)C(C)=CC1COC1OC(C)C(O)C(OC)C1OC (stereo not shown) [Compound T, 11-(p-Chlorophenylthio)-10,11-dihydrotylosin] | < 0.1 µg/mL | 25 µg/mL (≈ 23.6 µM) | 0.4 µg/mL (≈ 0.377 µM) | 100 µg/mL (≈ 94.3 µM) | 25 µg/mL (≈ 23.6 µM) | 100 µg/mL (≈ 94.3 µM) |  | 50 µg/mL (≈ 47.1 µM) | 0.4 µg/mL (≈ 0.377 µM) | 100 µg/mL (≈ 94.3 µM) | 25 µg/mL (≈ 23.6 µM) | 3.12 µg/mL (≈ 2.94 µM) | 50 µg/mL (≈ 47.1 µM) | 100 µg/mL (≈ 94.3 µM) | 50 µg/mL (≈ 47.1 µM) | > 100 µg/mL
CCC1OC(=O)CC(O)C(C)C(OC2OC(C)C(OC3CC(C)(O)C(O)C(C)O3)C(N(C)C)C2O)C(CC=O)CC(C)C(=O)CC(Sc2ccc(N)cc2)C(C)=CC1COC1OC(C)C(O)C(OC)C1OC (stereo not shown) [Compound U, 11-(p-Aminophenylthio)-10,11-dihydrotylosin] | 0.78 µg/mL (≈ 0.749 µM) | > 100 µg/mL | 1.56 µg/mL (≈ 1.5 µM) | > 100 µg/mL | 25 µg/mL (≈ 24 µM) | > 100 µg/mL |  | > 100 µg/mL | 0.4 µg/mL (≈ 0.384 µM) | > 100 µg/mL | 25 µg/mL (≈ 24 µM) | 6.25 µg/mL (≈ 6 µM) | 50 µg/mL (≈ 48 µM) | > 100 µg/mL | > 100 µg/mL | > 100 µg/mL
CCC1OC(=O)CC(O)C(C)C(OC2OC(C)C(OC3CC(C)(O)C(O)C(C)O3)C(N(C)C)C2O)C(CC=O)CC(C)C(=O)CC(Sc2ccc(C)cc2)C(C)=CC1COC1OC(C)C(O)C(OC)C1OC (stereo not shown) [Compound V, 10,11-Dihydro-11-(p-methylphenylthio)tylosin] | < 0.1 µg/mL | 25 µg/mL (≈ 24 µM) | 0.4 µg/mL (≈ 0.384 µM) | 100 µg/mL (≈ 96.1 µM) |  | 100 µg/mL (≈ 96.1 µM) |  | 50 µg/mL (≈ 48.1 µM) | 0.4 µg/mL (≈ 0.384 µM) | 100 µg/mL (≈ 96.1 µM) |  | 3.12 µg/mL (≈ 3 µM) |  | 100 µg/mL (≈ 96.1 µM) | 50 µg/mL (≈ 48.1 µM) | > 100 µg/mL
CCC1OC(=O)CC(O)C(C)C(OC2OC(C)C(OC3CC(C)(O)C(O)C(C)O3)C(N(C)C)C2O)C(CC=O)CC(C)C(=O)CC(Sc2ccc(OC)cc2)C(C)=CC1COC1OC(C)C(O)C(OC)C1OC (stereo not shown) [Compound W, 10,11-Dihydro-11-(p-methoxyphenylthio)tylosin] | < 0.1 µg/mL | 50 µg/mL (≈ 47.3 µM) | 0.4 µg/mL (≈ 0.379 µM) | 100 µg/mL (≈ 94.7 µM) | 50 µg/mL (≈ 47.3 µM) | 100 µg/mL (≈ 94.7 µM) |  | > 100 µg/mL | 0.4 µg/mL (≈ 0.379 µM) | 100 µg/mL (≈ 94.7 µM) | 50 µg/mL (≈ 47.3 µM) | 3.12 µg/mL (≈ 2.95 µM) | 100 µg/mL (≈ 94.7 µM) | 100 µg/mL (≈ 94.7 µM) | 50 µg/mL (≈ 47.3 µM) | > 100 µg/mL
CCC1OC(=O)CC(O)C(C)C(OC2OC(C)C(O)C(N(C)C)C2O)C(CC=O)CC(C)C(=O)CC(SCCO)C(C)=CC1COC1OC(C)C(O)C(OC)C1OC (stereo not shown) [O, 10,11-Dihydro-11-(2-hydroxyethylthio)demycarosyltylosin] | 0.4 µg/mL (≈ 0.471 µM) | > 100 µg/mL | 3.12 µg/mL (≈ 3.67 µM) | > 100 µg/mL |  | > 100 µg/mL |  | > 100 µg/mL | 12.5 µg/mL (≈ 14.7 µM) | > 100 µg/mL |  | 12.5 µg/mL (≈ 14.7 µM) |  | > 100 µg/mL | > 100 µg/mL | > 100 µg/mL
